Measurements taken from patent publication US9079866B2, “Flap modulators” (JANSSEN PHARMACEUTICA NV, priority 2013, dated 2015).
Counter-ions that a name gives are not always drawn. Like-named read-outs stand apart in the source and are kept apart here.

Experiments:
[1] = test system: leukotriene pathway in human whole blood (LTB4 levels); assay: Human whole blood assay (A23187-stimulated LTB4); format: cell-based; details: read-out: LTB4 IC50 1:1
Procedure, shortened: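 Blood (heparin) diluted 1:1 RPMI; compound pre-incubation 15 min, 37° Celsius; A23187 7 μg/mL, 30 min, 37° Celsius; plasma LTB4 by commercial kit. IC50 via 4-parameter equation.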

human FLAP = human FLAP (Homo sapiens (Human), UniProt P20292); assay: FLAP binding assay (HTRF format)
Chain of human FLAP (P20292 whole entry): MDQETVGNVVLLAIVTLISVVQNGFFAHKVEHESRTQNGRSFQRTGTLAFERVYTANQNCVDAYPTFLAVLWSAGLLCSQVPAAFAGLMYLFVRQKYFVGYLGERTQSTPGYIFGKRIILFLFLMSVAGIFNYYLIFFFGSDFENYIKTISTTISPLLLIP
Procedure, shortened: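 Reported data take the mean of two different plates carrying duplicate samples and use the HTRF ratio as the measured signal.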

[2] = Homo sapiens, human whole blood diluted 1:1 in RPMI, A23187-stimulated LTB4
[3] = human FLAP wild type, HTRF format, average of two plates, duplicates
[4] = Homo sapiens, human whole blood diluted 1:1, A23187-stimulated
[5] = read-out: FLAP Binding wild type HTRF Ki

Structure (SMILES)	IC50 [1, 2]	Ki (human FLAP; [3])	IC50 [1, 4]	Ki (human FLAP; wild type FLAP, HTRF format)	further results
Nc1cnc(-c2ccc(-c3ccccc3S(=O)(=O)N3CCC[C@H](N)C3)cc2F)cn1 [Example 137, (S)-5-{2′-[(3-Aminopiperidin-1-yl)sulfonyl]-3-fluorobiphenyl-4-yl}pyrazin-2-amine]	44 nM	3 nM	–	–	–
CCS(=O)(=O)Cc1ccccc1-c1ccc(-c2cnc(N)cn2)c(F)c1 [Example 749, 5-{2′-[(Ethylsulfonyl)methyl]-3-fluorobiphenyl-4-yl}pyrazin-2-amine hydrogen chloride salt]	–	–	468 nM	–	Ki (human FLAP; [5]): 246 nM
N#Cc1nc(N)cnc1-c1ccc(-c2ccccc2S(=O)(=O)N2CCS(=O)(=O)CC2)cc1F [Example 704, 6-Amino-3-{2′-[(1,1-dioxidothiomorpholin-4-yl)sulfonyl]-3-fluorobiphenyl-4-yl}pyrazine-2-carbonitrile]	–	–	191 nM	102 nM	–
NC(=O)NCCNS(=O)(=O)c1ccccc1-c1ccc(-c2cnc(N)cn2)c(F)c1 [Example 157, 4′-(5-Aminopyrazin-2-yl)N—N-[2-(carbamoylamino)ethyl]-3′-fluorobiphenyl-2-sulfonamide]	1840 nM	10 nM	–	–	–
Nc1cnc(-c2ccc(-c3ccccc3CSc3nccc(N)n3)cc2F)cn1 [Example 237, 2-(((4′-(5-Aminopyrazin-2-yl)-3′-fluoro-[1,1′-biphenyl]-2-yl)methyl)thio)pyrimidin-4-amine hydrochloride]	134 nM	8 nM	–	–	–
C[C@@H](NS(=O)(=O)c1ccccc1-c1ccc(-c2cnc(N)nc2)nc1)C(F)(F)F [Example 686, 2-[6-(2-Aminopyrimidin-5-yl)pyridin-3-yl]-N-[(1R)-2,2,2-trifluoro-1-methylethyl]benzenesulfonamide trifluoroacetic acid salt]	–	–	1490 nM	334 nM	–
Nc1cnc(Sc2ccccc2-c2ccc(-c3cnc(N)cn3)c(F)c2)cn1 [Example 741, 5-{[4′-(5-Aminopyrazin-2-yl)-3′-fluorobiphenyl-2-yl]sulfanyl}pyrazin-2-amine]	–	–	26.3 nM	4.6 nM	–
Nc1ncc(-c2ccc(-c3ccccc3NS(=O)(=O)N3CCCC3)cc2F)cn1 [Example 309, N-[4′-(2-Aminopyrimidin-5-yl)-3′-fluorobiphenyl-2-yl]pyrrolidine-1-sulfonamide]	1780 nM	214 nM	–	–	–
CC(C)(C)NS(=O)(=O)c1ccccc1-c1ccc(-c2csc(N)n2)c(F)c1 [Example 577, 4′-(2-Amino-1,3-thiazol-4-yl)-N-tert-butyl-3′-fluorobiphenyl-2-sulfonamide]	–	–	91 nM	10 nM	–
Nc1cnc(-c2ccc(-c3ccccc3S(=O)(=O)N3C[C@H]4C[C@@H]3CN4)cc2F)cn1 [Example 130, 5-(2′-((1R,4R)-2,5-Diazabicyclo[2.2.1]heptan-2-ylsulfonyl)-3-fluoro-[1,1′-biphenyl]-4-yl)pyrazin-2-amine]	633 nM	129 nM	–	–	–
Nc1cnc(-c2ccc(-c3ccccc3S(=O)(=O)N3CCc4[nH]ncc4C3)cc2F)cn1 [Example 128, 5-[3-Fluoro-2′-(1,4,6,7-tetrahydro-5H-pyrazolo[4,3-c]pyridin-5-ylsulfonyl)biphenyl-4-yl]pyrazin-2-amine]	38 nM	1 nM	–	–	–
CCN1CCCC[C@@H](NS(=O)(=O)c2ccccc2-c2ccc(-c3cnc(N)cn3)c(F)c2)C1=O [Example 27, (S)-4′-(5-Aminopyrazin-2-yl)-N-[(3S)-1-ethyl-2-oxoazepan-3-yl]-3′-fluorobiphenyl-2-sulfonamide]	10000 nM	29 nM	–	–	–
Nc1cnc(-c2ccc(-c3ccccc3S(=O)(=O)NC3CCCCC3)cc2F)cn1 [Example 6, 4′-(5-Aminopyrazin-2-yl)-N-cyclohexyl-3′-fluorobiphenyl-2-sulfonamide]	33 nM	1 nM	–	–	–
CC(C)(C)NS(=O)(=O)c1ccccc1-c1ccc(-c2cnc(N)nc2)nc1 [Example 693, 2-[6-(2-Aminopyrimidin-5-yl)pyridin-3-yl]-N-tert-butylbenzenesulfonamide]	–	–	103 nM	49.5 nM	–
C[C@@H](NS(=O)(=O)c1ccccc1-c1ccc(-c2cnc(N)cn2)c(F)c1)C(F)(F)F [Example 127, (R)-4′-(5-Aminopyrazin-2-yl)-3′-fluoro-N-(2,2,2-trifluoro-1-methylethyl)biphenyl-2-sulfonamide]	–	2 nM	–	–	IC50 ([1]; human whole blood diluted 1:1 in RPMI, A23187-stimulated LTB4): 35 nM
C[C@H](NS(=O)(=O)c1ccccc1-c1ccc(-c2cnc(N)cn2)c(F)c1)C(=O)O [Example 156, (S)-2-(4′-(5-Aminopyrazin-2-yl)-3′-fluoro-[1,1′-biphenyl]-2-ylsulfonamido)propanoic acid]	> 10000 nM	351 nM	–	–	–
Nc1cnc(-c2ccc(-c3ccccc3-c3cnc(N4CCOCC4)nc3)cc2F)cn1 [Example 850, 5-[3-Fluoro-2′-(2-morpholin-4-ylpyrimidin-5-yl)biphenyl-4-yl]pyrazin-2-amine]	–	–	195 nM	37.7 nM	–
Nc1cnc(-c2ccc(-c3ccccc3S(=O)(=O)N3CCC(F)(F)CC3)cc2F)cn1 [Example 49, 5-{2′-[(4,4-Difluoropiperidin-1-yl)sulfonyl]-3-fluorobiphenyl-4-yl}pyrazin-2-amine]	21 nM	2 nM	–	–	–
Nc1cnc(-c2ccc(-c3ccccc3S(=O)(=O)N3CCN(C4CC4)CC3)cc2F)cn1 [Example 60, 5-{2′-[(4-Cyclopropylpiperazin-1-yl)sulfonyl]-3-fluorobiphenyl-4-yl}pyrazin-2-amine]	464 nM	28 nM	–	–	–
CC(C)(C)NS(=O)(=O)c1ccccc1-c1ccc(-c2cn3c(N)cccc3n2)c(F)c1 [Example 581, 4′-(5-Aminoimidazo[1,2-a]pyridin-2-yl)-N-tert-butyl-3′-fluorobiphenyl-2-sulfonamide]	–	–	2820 nM	60 nM	–
N#Cc1nc(-c2ccc(-c3ccccc3Oc3nccc(N)n3)cc2F)cnc1N [Example 695, 3-Amino-6-{2′-[(4-aminopyrimidin-2-yl)oxy]-3-fluorobiphehenyl-4-yl}pyrazine-2-carbonitrile trifluoroacetic acid salt]	–	–	336 nM	8.4 nM	–
CC(C)(C)S(=O)(=O)c1ncccc1-c1ccc(-c2cnc(N)cn2)c(F)c1 [Example 812, 5-(4-(2-(tert-Butylsulfonyl)pyridin-3-yl)-2-fluorophenyl)pyrazin-2-amine formic acid salt]	–	–	12 nM	–	Ki (human FLAP; [5]): 8.5 nM
C[C@H](CO)NS(=O)(=O)c1ccccc1-c1ccc(-c2cnc(N)nc2)c(F)c1 [Example 289, 4′-(2-Aminopyrimidin-5-yl)-3′-fluoro-N-[(1R)-2-hydroxy-1-methylethyl]biphenyl-2-sulfonamide]	36 nM	22 nM	–	–	–
Nc1cnc(-c2ccc(-c3ccccc3Sc3cnccn3)cc2F)cn1 [Example 218, 5-[3-Fluoro-2′-(pyrazin-2-ylsulfanyl)biphenyl-4-yl]pyrazin-2-amine hydrochloride]	29 nM	–	–	–	Ki (human FLAP; [5]): 3 nM
Nc1ncc(-c2ccc(-c3ccccc3Oc3nccc(C(F)(F)F)n3)cc2F)cn1 [Example 613, 5-(3-Fluoro-2′-{[4-(trifluoromethyl)pyrimidin-2-yl]oxy}biphenyl-4-yl)pyrimidin-2-amine]	–	–	556 nM	215 nM	–
Nc1ccc(-c2ccc(-c3ccccc3S(=O)(=O)N3CCCC3)cc2F)cn1 [Example 344, 5-(3-Fluoro-2′-(pyrrolidin-1-ylsulfonyl)-[1,1′-biphenyl]-4-yl)pyridin-2-amine]	> 10000 nM	81 nM	–	–	–
